Test results published in publication PMC11044963, “Probing the CRL4^DCAF12 interactions with MAGEA3 and CCT5 di-Glu C-terminal degrons” (PNAS Nexus, 2024).
Entries after “also recorded” stand apart in the source; their conditions may differ. Where no end group is shown, it is not given here.

Tests used:
DCAF12-DDB1 = target: T1, DCAF12-DDB1 (Homo sapiens, UniProt Q16531+Q5T6F0); assay: FP direct peptide binding, DDB1–DCAF12 complex; settings: for Kd range, FP direct binding: DDB1–DCAF12, FITC-labeled peptide
T1 construct: Despite our attempts to express and purify the full-length (FL) DCAF12 in isolation; made in house; host or cells: Spodoptera frugiperda Sf9 (baculovirus co-expression)
Source text: (§1) To further characterize DCAF12 binding to MAGEA3 and CCT5 degrons, we developed a fluorescence polarization (FP)-based peptide binding and displacement assay in vitro. We designed small N-terminal fluorescein isothiocyanate (FITC)-labeled peptides harboring 11 C-terminal residues of MAGEA3 ([…]) and nine from CCT5 ([…]), both carrying the known -EE degron.
(§2) DCAF12 constructs were subcloned from Mammalian Gene Collection (MGC) stock BC063823 into baculovirus expression vector pFBOH-MHL. For co-expression with DCAF12, DDB1 (MGC stock […]) and DDA1 (MGC stock BC000615) were subcloned into pFBOH-LIC vector lacking any protein tags. For testing DDB1-FL direct binding to peptides on FP assay, the protein was expressed using pFBOH-MHL vector with His-tag. All protein constructs were expressed in Spodoptera frugiperda (Sf9), as previously described ([37]).
(§3) FP-binding assays were performed using 20 mM Tris pH 7.5, 150 mM NaCl, 5% glycerol, 0.5 mM TCEP, and 0.01% Triton buffer. All tested proteins were titrated from an initial 4 µM highest concentration, followed by a factor two serial dilution. N-terminally labeled FITC peptides ([…] for MAGEA3, […] for CCT5, and […] for H3K9A) binding to proteins was tested at 20 nM final concentration. The assay was incubated for 45 min at room temperature, and plates were read using BioTek Synergy 4 (BioTek) plate reader. Prior to displacement assay, proteins at binding Kd concentration were mixed with FITC peptides at 20 nM final concentration. Displacement was evaluated by using a titration curve of unlabeled peptide, with 40 µM as the highest concentration. Buffer, incubation time, and reading conditions followed FP-binding protocol. All FP analyses were performed in triplicates and, at least, two independent experiments. All Kd and KDISP values were calculated using GraphPad Prism version 9.0.

DCAF12-DDB1-DDA1 = target: T2, DCAF12-DDB1-DDA1 (Homo sapiens, UniProt Q16531+Q5T6F0+Q9BW61); assay: FP direct peptide binding, DDB1–DCAF12–DDA1 complex; settings: for Kd range, FP direct binding: DDB1–DCAF12–DDA1, FITC-labeled peptide
T2 construct: Despite our attempts to express and purify the full-length (FL) DCAF12 in isolation; made in house; host or cells: Spodoptera frugiperda Sf9 (baculovirus co-expression)
Source text: as §1, §2, §3

DCAF12 (Δ1–78) = target: T3, DCAF12 (Δ1–78) (Homo sapiens, UniProt Q5T6F0); assay: FP direct peptide binding, DCAF12 (Δ1–78); settings: FITC-labeled peptide
T3 construct: DCAF12:79-453aa; His6-TEV site ([…]) (N); made in house; host or cells: Spodoptera frugiperda Sf9 (baculovirus)
Source text: as §1, §2
FP-binding assays were performed using 20 mM Tris pH 7.5, 150 mM NaCl, 5% glycerol, 0.5 mM TCEP, and 0.01% Triton buffer. […] The assay was incubated for 45 min at room temperature, and plates were read using BioTek Synergy 4 (BioTek) plate reader. […] Displacement was evaluated by using a titration curve of unlabeled peptide, with 40 µM as the highest concentration. Buffer, incubation time, and reading conditions followed FP-binding protocol. […] All Kd and KDISP values were calculated using GraphPad Prism version 9.0.

[1] = target: T4, biotinylated DCAF12 (Δ1–78) (Homo sapiens, UniProt Q5T6F0); assay: SPR peptide binding, biotinylated DCAF12 (Δ1–78); settings: unlabeled peptide, 15 °C, 1:1 Langmuir; for koff: dissociation phase 200 s; for koff / kon: HEPES pH 7.4, 2% DMSO, Fig. 1D, E; for kon: injected 120 s at 30 μL/min
T4 construct: DCAF12:79-453aa; His6 with linker ([…]) (C); made in house; host or cells: Sf9 cells (baculovirus, pFBD-BirA vector)
Procedure: For SPR experiments, DCAF12 Δ1–78 sequence was subcloned into pFBD-BirA vector, expressed in sf9 cells, and purified as described (Table S2). Biotinylated DCAF12 (Δ1–78) was immobilized to a level of ∼3,200 RU on a Biacore Series S streptavidin chip (Cytiva BR100531) using a Biacore 8K+ (Cytiva). Experiments were performed in a running buffer of 10 mM 4-(2-hydroxyethyl)-1-piperazineethanesulfonic acid (HEPES), pH 7.4, 150 mM NaCl (Cytiva BR-1006-70), 3 mM EDTA (Corning 46-034-CI), 0.005% P20 (Cytiva BR-1000-54), 5% Glycerol (Sigma G5516-1L), and 2% DMSO (Millipore Sigma MX1457-6). CCT5 and MAGEA3 peptides were injected over a period of 120 s at 30 μL/min followed by a dissociation phase of 200 s in an 8-point 2-fold dilution series with a top concentration of 1 μM. All steps were carried out at 15 °C. Reference and buffer-blank subtracted data were analyzed with the Biacore 8K Evaluation Software and fit to a 1:1 Langmuir model to obtain binding kinetics and KD values.

DCAF12 R203A/R256A = assay: NanoBRET with -EE degrons, DCAF12 R203A/R256A mutant; type: cell-based, human; settings: HEK293T cells; HT-tagged DCAF12 R203A/R256A, NL-tagged degron; vs WT
Source text: (§4) To further investigate the DCAF12 interaction with MAGEA3 and CCT5 in cells, we developed a NanoBRET assay, which measures the interaction of […] FL MEAGEA3/CCT5 or C-terminal peptide containing degron sequences ([…]/[…], respectively). When donor and acceptor proteins are in close proximity, the donor excites the acceptor, which then emits fluorescence, allowing for direct measurement of protein–protein interaction in cells.
(§5) Therefore, we used site-directed mutagenesis to generate two DCAF12 mutants in the central pocket of the WDR domain: R203A/R256A and R203A/R244A. DCAF12 wild-type (WT) and mutant interactions with MAGEA3 and CCT5 degron peptides were tested in a NanoBRET proximity-based assay (Fig. 2C).
(§6) HEK293T cells were plated in 96-well plates (2 × 10^4/well) and 4 h later transfected with 0.03 µg/well N-terminally HT-tagged DCAF12 (WT or mutants) or HT alone and 0.001 µg/well N-terminally NL-tagged CCT5 and MAGEA3 (FL or -EE degrons) using X-tremeGene HP transfection reagent (Roche), following the manufacturer's instructions. […] Four hours later, 10 µL of NanoBRET Nano-Glo Substrate solution (8 µL/mL Nano-Glo substrate (Promega) diluted in DMEM/F12 no phenol red, supplemented with 4% FBS, penicillin 100 U/mL, and streptomycin 100 µg/mL) was added, and the signal was read. […]

DCAF12 R203A/R244A = assay: NanoBRET with -EE degrons, second DCAF12 double arginine mutant; type: cell-based, human; settings: HEK293T cells; HT-tagged DCAF12 mutant, NL-tagged degron; vs WT
Source text: as §4, §5, §6

[2] = tested on: DCAF12 mutants K91A, K108A, R203A, R256A, R344A; assay: NanoBRET with full-length proteins, DCAF12 mutants; type: cell-based, human; settings: HEK293T cells; FL protein or degron as stated; DCAF12 mutations vs WT
Source text: Fig. 2. Conserved arginine and lysine residues near DCAF12 central channel participate in MAGEA3 binding in cells. A) DCAF12 electrostatic surface potential analysis showing negatively and positively charged residues colored in red and blue, respectively. On the left, DDB1 contacting surface of DCAF12. On the right, substrate contacting surface with positively charged residues—Arg203, Arg256, and Arg344—highlighted as sticks. Electrostatic potential is shown on a scale of −10 (red) kT/e to 10 (blue). B) Conservation analysis of DCAF12 showing high conservation of the same positively charged residues (represented as sticks) among homologous sequences. Residues were colored on a scale from variable/low conservation (dark teal) to high conservation (magenta). […]
as §6

DCAF12 = assay: NanoBRET with full-length proteins, DCAF12; type: cell-based, human; settings: HEK293T cells; FL protein
Source text: as §4
as §6, with “read. Donor emission at 450 nm (filter: 450 nm/BP 80 nm) and acceptor emission at 618 nm (filter: 610 nm/LP) were measured within 10 min of substrate addition using CLARIOstar microplate reader (Mandel).” for “read.”

IRKPGESEE [CCT5]
Kd range, FP direct binding (DCAF12-DDB1): nanomolar range | Kd range, FP direct binding (DCAF12-DDB1-DDA1): nanomolar range | Kd range, FP direct binding (DCAF12 (Δ1–78)): nanomolar range | Kd ([1]; 8-point 2-fold dilution from 1 μM, 10 mM HEPES pH 7.4, 150 mM NaCl, 3 mM EDTA, 0.005% P20, 5% glycerol, 2% DMSO, Table S1): 60 nM | koff [1]: 0.017 s⁻¹ | kon [1]: 290000 M⁻¹ s⁻¹

ARTKQTARASTGGK [H3K9A, reference compound]
FP binding of control peptide lacking -EE (DCAF12-DDB1; FITC-labeled peptide 20 nM, protein up to 4 µM, Tris pH 7.5, 45 min, room temperature, DCAF12-DDB1 complex per Fig. S2): did not show any binding

LHEWVLREGEE [MAGEA3 degron]
effect of DCAF12 mutation on interaction with degron, NanoBRET (DCAF12 R203A/R256A): significantly decreased | effect of DCAF12 mutation on interaction with degron, NanoBRET (DCAF12 R203A/R244A): significantly decreased

IRKPGESEE [CCT5 degron]
effect of DCAF12 mutation on interaction with degron, NanoBRET (DCAF12 R203A/R256A): significantly decreased | effect of DCAF12 mutation on interaction with degron, NanoBRET (DCAF12 R203A/R244A): significantly decreased

CCT5-FL: full-length T-complex protein 1 subunit epsilon protein
effect of DCAF12 mutations on interaction, NanoBRET [2]: no changes were observed; also recorded: little to no effect | BRET signal over negative control (DCAF12): 3.6 fold | engagement with DCAF12 in cells, NanoBRET (DCAF12): low engagement

LHEWVLREGEE [MAGEA3]
Kd range, FP direct binding (DCAF12-DDB1): nanomolar range | Kd range, FP direct binding (DCAF12-DDB1-DDA1): nanomolar range | Kd (DCAF12-DDB1-DDA1; FITC-labeled peptide 20 nM, protein 2-fold dilution from 4 µM, 20 mM Tris pH 7.5, 150 mM NaCl, 5% glycerol, 0.5 mM TCEP, 0.01% Triton, 45 min, room temperature, triplicates, at least two independent experiments): 60 nM | Kd range, FP direct binding (DCAF12 (Δ1–78)): nanomolar range | koff [1]: 0.06 s⁻¹ | kon [1]: 370000 M⁻¹ s⁻¹
